Molecular target: T1, human MRGPRX2 (Homo sapiens, UniProt Q96LB1)
T1 sequence (Q96LB1 1-330): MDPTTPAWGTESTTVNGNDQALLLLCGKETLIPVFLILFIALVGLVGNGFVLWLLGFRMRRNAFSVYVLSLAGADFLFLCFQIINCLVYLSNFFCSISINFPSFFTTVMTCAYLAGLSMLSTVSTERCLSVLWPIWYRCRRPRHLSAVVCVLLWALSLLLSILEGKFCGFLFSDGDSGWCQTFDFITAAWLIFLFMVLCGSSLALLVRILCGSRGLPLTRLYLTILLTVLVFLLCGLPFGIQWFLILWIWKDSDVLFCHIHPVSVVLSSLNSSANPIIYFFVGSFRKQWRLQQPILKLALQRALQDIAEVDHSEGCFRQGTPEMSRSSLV
Assay: Ca2+ mobilization assay (FLIPR TETRA): inhibition of Cortistatin-14 mediated MRGPRX2 activation

Compound	IC50 [nM]
C[C@@H](C(=O)Nc1ccc(OCC2CC2)nn1)N1CCC(F)(F)[C@@H](c2cc[n+]([O-])c(CC(F)(F)F)c2)C1 [Example 220]	≤ 10
Cc1cc(C2CN([C@@H](C)C(=O)Nc3ccc(F)cn3)CCC2(F)F)cc[n+]1[O-] (stereo partly drawn) [Example 217, 4-(4,4-difluoro-1l-((S)-1-((5-fluoropyridin-2-yl)amino)-1-oxopropan-2-yl)piperidin-3-yl)-2-methylpyridine 1-oxide]	100 to 3160
C[C@@H](C(=O)Nc1ccc(OCC2CC2)cn1)N1CCC(F)(F)[C@@H](c2c[nH]c(=O)c(N)c2)C1 [Example 138, (S)-2-((S)-3-(5-amino-6-oxo-1,6-dihydropyridin-3-yl)-4,4-difluoropiperidin-1-yl)-N-(5-(cyclopropylmethoxy)pyridin-2-yl)propanamide]	10 to 100
C[C@@H](C(=O)Nc1ccc(Oc2ccc(F)cc2F)cn1)N1CCC(F)(F)[C@@H](c2c[nH]c(=O)c(CNCC(F)(F)F)c2)C1 [Example 242, (S)-2-((S)-4,4-difluoro-3-(6-oxo-5-(((2,2,2-trifluoroethyl)amino)methyl)-1,6-dihydropyridin-3-yl)piperidin-1-yl)-N-(5-(2,4-difluorophenoxy)pyridin-2-yl)propanamide]	≤ 10
CC(C(=O)Nc1ccc(C2CCCCC2)cn1)N1CCC(F)(F)[C@@H](c2ccc(=O)[nH]c2)C1 (stereo partly drawn) [Example 42, N-(5-cyclohexyl-pyridin-2-yl)-2-((S)-4,4-difluoro-3-(6-oxo-1,6-dihydropyridin-3-yl)piperidin-1-yl)propanamide]	100 to 3160
C[C@@H](C(=O)Nc1ccc(OCC2CCC2)nn1)N1CCC(F)(F)[C@@H](c2ccc(=O)[nH]c2)C1 [Example 71, (S)-N-(6-(cyclobutyl-methoxy)pyridazin-3-yl)-2-((S)-4,4-difluoro-3-(6-oxo-1,6-dihydropyridin-3-yl)piperidin-1-yl)propanamide]	100 to 3160
C[C@@H](C(=O)Nc1ccc(Oc2ncc(F)cc2F)cn1)N1CCC(F)(F)[C@@H](c2c[nH]c(=O)c(CN3CCOCC3)c2)C1 [Example 228, (S)-2-((S)-4,4-difluoro-3-(5-(morpholinomethyl)-6-oxo-1,6-dihydropyridin-3-yl)piperidin-1-yl)-N-(5-((3,5-difluoropyridin-2-yl)oxy)pyridin-2-yl)propanamide]	10 to 100
C[C@@H](C(=O)Nc1ccc(F)cn1)N1CCC(F)(F)[C@@H](c2cc(N)c(=O)[nH]n2)C1 [Example 143, (S)-2-((R)-3-(5-amino-6-oxo-1,6-dihydropyridazin-3-yl)-4,4-difluoropiperidin-1-yl)-N-(5-fluoropyridin-2-yl)propanamide]	10 to 100
CC(C(=O)Nc1ccc(OC2CCC2)cn1)N1CCC(F)(F)[C@@H](c2ccc(=O)[nH]c2)C1 (stereo partly drawn) [Example 78, N-(5-cyclobutoxy-pyridin-2-yl)-2-((S)-4,4-difluoro-3-(6-oxo-1,6-dihydropyridin-3-yl)piperidin-1-yl)propanamide]	100 to 3160
C[C@@H](C(=O)Nc1ccc(Cl)cn1)N1CCC[C@@H](c2c[nH]c(=O)c(CN)c2)C1 (single isomer, unassigned) [Example 175]	3160 to 31600
CC(C(=O)Nc1ccc(Oc2cncc(F)c2)cn1)N1CCC(F)(F)[C@@H](c2ccc(=O)[nH]c2)C1 (stereo partly drawn) [Example 67, 2-((S)-4,4-difluoro-3-(6-oxo-1,6-dihydropyridin-3-yl)piperidin-1-yl)-N-(5-((5-fluoropyridin-3-yl)oxy)pyridin-2-yl)propanamide]	10 to 100
C[C@@H](C(=O)Nc1ccc(OCC2CC2)cn1)N1CCC[C@@H](c2c[nH]c(=O)cc2C(F)(F)F)C1 (single isomer, unassigned) [Example 169]	100 to 3160
C[C@@H](C(=O)Nc1ccc(Oc2ccc(F)cn2)cn1)N1CCC(F)(F)[C@@H](c2ccc(=O)[nH]c2)C1 [Example 69, (S)-2-((S)-4,4-difluoro-3-(6-oxo-1,6-dihydropyridin-3-yl)piperidin-1-yl)-N-(5-((5-fluoropyridin-2-yl)oxy)pyridin-2-yl)propanamide]	≤ 10

From patent US11976057B2, “MrgX2 antagonists” (GlaxoSmithKline Intellectual Property Development Limited, priority 2020, dated 2024)
